Values quoted from earlier work as cited in patent publication US5849729A, “Use of hydrolyzed cocoa butter for percutaneous absorption” (Hershey Foods Corporation, priority 1995, dated 1998).
Like-named read-outs stand apart in the source and are kept apart here.

Settings: cited from earlier work
[1] = in vivo, topical or ocular, 120 h

Row | Structure (SMILES) | Absorption Rate 0-12 (in vivo) | Absorption Rate 12-24 (in vivo) | Absorption Rate 24-48 (in vivo) | Absorption Rate 48-72 (in vivo) | Absorption Rate 72-96 (in vivo) | Absorption Rate 96-120 (in vivo) | Total Absorption (T of above) (topical, 0-120 hrs) | Absorption Rate 0-12 (topical, 0-12 hrs) | Absorption Rate 12-24 (topical, 12-24 hrs) | Absorption Rate 24-48 (topical, 24-48 hrs) | Absorption Rate 48-72 (topical, 48-72 hrs) | Absorption Rate 72-96 (topical, 72-96 hrs) | Absorption Rate 96-120 (topical, 96-120 hrs) | absorption through the skin of closely related corticosteroid compounds (published literature, topical) | Total Absorption (T of above) [1] | absorption through the skin of closely related corticosteroid compounds (in vivo, topical or ocular)
1 | C[C@]12CCC(=O)C=C1CC[C@@H]1[C@@H]2CC[C@@]2(C)[C@H]1CC[C@]2(O)C(=O)CO [17-OII DOC] | .041 % hr | .101 % hr | .084 % hr | .076 % hr | .062 % hr | .065 % hr | 8.41 % of the dose | – | – | – | – | – | – | – | – | –
2 | CC(=O)[C@@]1(O)CC[C@H]2[C@@H]3CCC4=CC(=O)CC[C@]4(C)[C@H]3CC[C@@]21C [17-OII Progesterone] | – | – | – | – | – | – | 14.76 % of the dose | – | – | – | – | – | – | – | – | –
3 | C[C@]12CCC(=O)C=C1CC[C@@H]1[C@@H]2CC[C@]2(C)C(=O)CC[C@@H]12 [Androstenedione] | – | – | – | – | – | – | 13.47 % of the dose | .183 % hr | .334 % hr | .155 % hr | .076 % hr | .043 % hr | .028 % hr | – | – | –
4 | C[C@]12C[C@H](O)[C@H]3[C@@H](CCC4=CC(=O)CC[C@@]43C)[C@@H]1CC[C@@H]2C(=O)CO [Corticosterone] | – | – | – | – | – | – | 8.78 % of the dose | .013 % hr | .065 % hr | .139 % hr | .070 % hr | .050 % hr | .039 % hr | – | – | –
5 | C[C@]12CCC(=O)C=C1CC[C@@H]1[C@@H]2C(=O)C[C@@]2(C)[C@H]1CC[C@]2(O)C(=O)CO [Cortisone] | – | – | – | – | – | – | 3.38 % of the dose | .015 % hr | .037 % hr | .039 % hr | .036 % hr | .032 % hr | .024 % hr | 1-3 % of the dose | – | –
6 | C[C@]12CC[C@H](O)CC1=CC[C@@H]1[C@@H]2CC[C@]2(C)C(=O)CC[C@@H]12 [Dehydroepiandrosterone] | – | – | – | – | – | – | 18.45 % of the dose | .265 % hr | .446 % hr | .249 % hr | .091 % hr | .046 % hr | .028 % hr | – | – | –
7 | C[C@]12CC[C@H]3[C@@H](CCC4=CC(=O)CC[C@@]43C)[C@@H]1CC[C@@H]2C(=O)CO [Desoxycorticosterone] | – | – | – | – | – | – | – | .197 % hr | .313 % hr | .143 % hr | .069 % hr | .035 % hr | .020 % hr | – | 12.55 % of the dose | –
8 | C[C@@H]1C[C@H]2[C@@H]3CCC4=CC(=O)C=C[C@]4(C)[C@@]3(F)[C@@H](O)C[C@]2(C)[C@@]1(O)C(=O)CO [Dexamethasone] | – | – | – | – | – | – | .40 % of the dose | .005 % hr | .003 % hr | .004 % hr | .003 % hr | .002 % hr | .002 % hr | – | – | –
9 | C[C@]12CC[C@@H]3c4ccc(O)cc4CC[C@H]3[C@@H]1CC[C@@H]2O [Estradiol] | .008 % hr | .056 % hr | .099 % hr | .101 % hr | .107 % hr | .103 % hr | – | – | – | – | – | – | – | – | 10.62 % of the dose | –
10 | CC1(C)O[C@@H]2C[C@H]3[C@@H]4C[C@H](F)C5=CC(=O)C=C[C@]5(C)[C@@]4(F)[C@@H](O)C[C@]3(C)[C@]2(C(=O)CO)O1 [Flucinoione Acetonide, fluocinolone acetonide] | .002 % hr | .011 % hr | .012 % hr | .016 % hr | .008 % hr | .005 % hr | 1.34 % of the dose | – | – | – | – | – | – | 1-3 % of the dose | – | –
11 | CC(=O)OCC(=O)[C@@]1(O)CC[C@H]2[C@@H]3CCC4=CC(=O)CC[C@]4(C)[C@H]3[C@@H](O)C[C@@]21C [Hydrocortisone Acetate] | .020 % hr | .089 % hr | .032 % hr | .024 % hr | .015 % hr | .008 % hr | – | – | – | – | – | – | – | – | 2.55 % of the dose | 1-3 % of the dose
12 | C[C@]12CCC(=O)C=C1CC[C@@H]1[C@@H]2[C@@H](O)C[C@@]2(C)[C@H]1CC[C@]2(O)C(=O)CO [Hydrocortisone] | .005 % hr | .023 % hr | .019 % hr | .018 % hr | .016 % hr | .010 % hr | – | – | – | – | – | – | – | – | 1.87 % of the dose | 1-3 % of the dose
13 | CC(=O)[C@H]1CC[C@H]2[C@@H]3CCC4=CC(=O)CC[C@]4(C)[C@H]3CC[C@]12C [Progesterone] | .208 % hr | .264 % hr | .135 % hr | .045 % hr | .024 % hr | .011 % hr | – | – | – | – | – | – | – | – | 10.81 % of the dose | –
14 | CC(=O)O[C@H]1CC[C@H]2[C@@H]3CCC4=CC(=O)CC[C@]4(C)[C@H]3CC[C@]12C [Testosterone Acetate] | – | – | – | – | – | – | 4.62 % of the dose | .103 % hr | .133 % hr | .048 % hr | .015 % hr | .007 % hr | .004 % hr | – | – | –
15 | CCC(=O)O[C@H]1CC[C@H]2[C@@H]3CCC4=CC(=O)CC[C@]4(C)[C@H]3CC[C@]12C [Testosterone Propionate] | – | – | – | – | – | – | 3.44 % of the dose | .061 % hr | .096 % hr | .035 % hr | .015 % hr | .009 % hr | .005 % hr | – | – | –
16 | C[C@]12CC[C@H]3[C@@H](CCC4=CC(=O)CC[C@@]43C)[C@@H]1CC[C@@H]2O [Testosterone] | – | – | – | – | – | – | 13.24 % of the dose | .147 % hr | .364 % hr | .156 % hr | .066 % hr | .036 % hr | .018 % hr | – | – | –
